Counter-ions that a name gives are not always drawn.
Experiment: Pharmacokinetic study of Icotinib hydrochloride and Polymorph Form II of Icotinib maleate, oral suspension, plasma by HPLC
Assay type: in vivo
Details: Sprague-Dawley (SD), rat, fasted male SD rats, oral suspension in sodium carboxymethyl cellulose, dose equivalent to 35 mg/kg Icotinib; for AUC(0-t): read-out: AUC(0-24)
Source text: Drugs and reagents: the Icotinib hydrochloride used in this study was of Crystalline Form I disclosed by the WO2010/003313. Polymorph Form II of Icotinib maleate and Icotinib hydrochloride were ground to fine particles. The material content (purity) was not less than 99.0%. Sodium carboxymethyl cellulose was medical supply graded.
Experimental animals: SD rats were divided to an Icotinib hydrochloride group and a Polymorph Form II group, with both groups consisting of males.
Pharmaceutical preparation: the amount of each compound was weighed and then sodium carboxymethyl cellulose was added to result in the test compound's concentration of 0.5%. The solid mixture was then added to prepare a suspension thereof at a final concentration of […] in water.
Administration and sample collection: each suspension was administered orally to fasted SD rats at a dose equivalent to 35 mg/kg Icotinib in a dose volume of 5 ml/kg. 0.4 ml of blood was collected in EDTA-K pre anticoagulant tubes at time intervals of 0.5, 1, 1.5, 2, 4, 6, 8 and 24 hrs after the administration of the test compound, centrifuged at 3000 rpm for 10 minutes, and 120 μl plasma was collected and kept in cold storage.
Samples were analyzed by high performance liquid chromatography. The chromatographic conditions utilized C18-silane bonded silica as stationary phase, 0.02 mol/L of sodium dihydrogen phosphate in acetonitrile (40:60, using sodium hydroxide solution to adjust pH to 5.0) as the mobile phase and a detection wavelength of 334 nm. PK profile comparison of Polymorph Form II of Icotinib maleate and Crystalline Form I of Icotinib hydrochloride was summarized in Table 1 and FIG. 3.

Row | AUC(0-inf) [ng·h/mL] | Cmax [ng/mL] | Tmax [h] | half-life [h] | AUC(0-t) [ng·h/mL] | SMILES
1 | 65400 | 7530 | 5.33 | 3.06 | 64800 | C#Cc1cccc(Nc2ncnc3cc4c(cc23)OCCOCCOCCO4)c1.O=C(O)/C=C\C(=O)O [Form II, Icotinib maleate]
2 | 19100 | 3360 | 2.33 | 2.94 | 19000 | C#Cc1cccc(Nc2ncnc3cc4c(cc23)OCCOCCOCCO4)c1 [Icotinib hydrochloride]
